Legend:
Hepatotoxicity [1] = system: Hepatotoxicity;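 on HepSE Combined Scores: combined hepatic side effect score as listed in the training data of the Drug Induced Liver Injury Prediction System (DILIps)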;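 on HepSE cirrhosis: cirrhosis hepatic side effect score taken from the DILIps (drug-induced liver injury prediction) training set; call rule not given here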;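 on HepSE elevated liver function tests: hepatic side effect score for raised liver function tests, as recorded in the DILIps training set used for predicting drug-induced liver injury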;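 on HepSE hepatic necrosis: score of hepatic side effects for hepatic necrosis, drawn from the training data of DILIps, a prediction system for drug-induced liver injury; call rule not given here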; on HepSE liver disease: call rule not given here;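 on HepSE liver fatty: hepatic side effect score for fatty liver, taken from the DILIps training set for predicting drug-induced liver injury; call rule not given here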;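 on HepSE liver function tests abnormal: hepatic side effect score taken from the DILIps (drug-induced liver injury prediction system) training data, here covering abnormal liver function test findings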
Hepatotoxicity [2] = system: Hepatotoxicity; remark: listed apart in the source;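 on HepSE Combined Scores: combined hepatic side effect score as listed in the training data of the Drug Induced Liver Injury Prediction System (DILIps)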;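 on HepSE elevated liver function tests: hepatic side effect score for raised liver function tests, as recorded in the DILIps training set used for predicting drug-induced liver injury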;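 on HepSE hepatic necrosis: score of hepatic side effects for hepatic necrosis, drawn from the training data of DILIps, a prediction system for drug-induced liver injury; call rule not given here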; on HepSE liver disease: call rule not given here;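 on HepSE liver fatty: hepatic side effect score for fatty liver, taken from the DILIps training set for predicting drug-induced liver injury; call rule not given here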;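 on HepSE liver function tests abnormal: hepatic side effect score taken from the DILIps (drug-induced liver injury prediction system) training data, here covering abnormal liver function test findings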
Hepatotoxicity [3] = system: Hepatotoxicity; remark: listed apart in the source;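 on HepSE Combined Scores: combined hepatic side effect score as listed in the training data of the Drug Induced Liver Injury Prediction System (DILIps)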;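 on HepSE elevated liver function tests: hepatic side effect score for raised liver function tests, as recorded in the DILIps training set used for predicting drug-induced liver injury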;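 on HepSE hepatic necrosis: score of hepatic side effects for hepatic necrosis, drawn from the training data of DILIps, a prediction system for drug-induced liver injury; call rule not given here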; on HepSE liver disease: call rule not given here;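 on HepSE liver fatty: hepatic side effect score for fatty liver, taken from the DILIps training set for predicting drug-induced liver injury; call rule not given here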;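 on HepSE liver function tests abnormal: hepatic side effect score taken from the DILIps (drug-induced liver injury prediction system) training data, here covering abnormal liver function test findings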
Hepatotoxicity [4] = system: Hepatotoxicity; remark: listed apart in the source;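 on HepSE Combined Scores: combined hepatic side effect score as listed in the training data of the Drug Induced Liver Injury Prediction System (DILIps)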;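 on HepSE elevated liver function tests: hepatic side effect score for raised liver function tests, as recorded in the DILIps training set used for predicting drug-induced liver injury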;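 on HepSE hepatic necrosis: score of hepatic side effects for hepatic necrosis, drawn from the training data of DILIps, a prediction system for drug-induced liver injury; call rule not given here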; on HepSE liver disease: call rule not given here;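 on HepSE liver fatty: hepatic side effect score for fatty liver, taken from the DILIps training set for predicting drug-induced liver injury; call rule not given here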;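 on HepSE liver function tests abnormal: hepatic side effect score taken from the DILIps (drug-induced liver injury prediction system) training data, here covering abnormal liver function test findings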
Hepatotoxicity [5] = system: Hepatotoxicity; remark: listed apart in the source; on HepSE liver disease: call rule not given here
Hepatotoxicity [6] = system: Hepatotoxicity; remark: listed apart in the source; on HepSE liver disease: call rule not given here
Hepatotoxicity [7] = system: Hepatotoxicity; remark: listed apart in the source
Hepatotoxicity [8] = system: Hepatotoxicity; remark: listed apart in the source
Hepatotoxicity [9] = system: Hepatotoxicity; remark: listed apart in the source
Hepatotoxicity [10] = system: Hepatotoxicity; remark: listed apart in the source
Hepatotoxicity [11] = system: Hepatotoxicity; remark: listed apart in the source
Hepatotoxicity [12] = system: Hepatotoxicity; remark: listed apart in the source
Hepatotoxicity [13] = system: Hepatotoxicity; remark: listed apart in the source
Hepatotoxicity [14] = system: Hepatotoxicity; remark: listed apart in the source

Compound	HepSE_hepatic necrosis (Hepatotoxicity [1])	HepSE_elevated liver function tests (Hepatotoxicity [2])	HepSE_Combined Scores (Hepatotoxicity [3])	HepSE_liver disease (Hepatotoxicity [4])	HepSE_liver function tests abnormal (Hepatotoxicity [5])	HepSE_liver fatty (Hepatotoxicity [6])	HepSE_cirrhosis (Hepatotoxicity [7])	HepSE_hepatitis (Hepatotoxicity [8])	HepSE_cholecystitis (Hepatotoxicity [9])	HepSE_jaundice (Hepatotoxicity [10])	HepSE_bilirubinemia (Hepatotoxicity [11])	HepSE_hepatic failure (Hepatotoxicity [12])	HepSE_cholelithiasis (Hepatotoxicity [13])	HepSE_hepatomegaly (Hepatotoxicity [14])	also measured
OC(CCN1CCCC1)(c1ccccc1)C1CCCCC1 (configuration not stated) [PROCYCLIDINE]	0	0	0	0	0	0	0	0	0	0	0	0	0	0	–
CN(C)C(=O)C(CCN1CCC(O)(c2ccc(Cl)cc2)CC1)(c1ccccc1)c1ccccc1 [LOPERAMIDE]	0	0	0	0	0	0	0	0	0	0	0	0	0	0	–
CC(=O)[O-].[Na+] [SODIUM ACETATE]	–	–	–	–	–	–	–	–	–	–	–	–	–	–	HepSE_hepatic necrosis (Hepatotoxicity [1]; Liver): 0; HepSE_elevated liver function tests (Hepatotoxicity [2]; Liver): 0; HepSE_Combined Scores (Hepatotoxicity [3]; Liver): 0; HepSE_liver disease (Hepatotoxicity [4]; Liver): 0; HepSE_liver function tests abnormal (Hepatotoxicity [5]; Liver): 0; HepSE_liver fatty (Hepatotoxicity [6]; Liver): 0; HepSE_cirrhosis (Hepatotoxicity [7]; Liver): 0; HepSE_hepatitis (Hepatotoxicity [8]; Liver): 0; HepSE_cholecystitis (Hepatotoxicity [9]; Liver): 0; HepSE_jaundice (Hepatotoxicity [10]; Liver): 0; HepSE_bilirubinemia (Hepatotoxicity [11]; Liver): 0; HepSE_hepatic failure (Hepatotoxicity [12]; Liver): 0; HepSE_cholelithiasis (Hepatotoxicity [13]; Liver): 0; HepSE_hepatomegaly (Hepatotoxicity [14]; Liver): 0
CCCCC(=O)OCC(=O)[C@]1(O)Cc2c(O)c3c(c(O)c2[C@@H](O[C@H]2C[C@H](NC(=O)C(F)(F)F)[C@H](O)[C@H](C)O2)C1)C(=O)c1c(OC)cccc1C3=O [VALRUBICIN]	0	0	0	0	0	0	0	0	0	0	0	0	0	0	–
Nc1cccc2c1CN(C1CCC(=O)NC1=O)C2=O (configuration not stated) [LENALIDOMIDE]	0	0	4	0	1	0	0	0	1	0	1	1	0	0	–
O=P(O)(O)C(Cl)(Cl)P(=O)(O)O [CLODRONIC ACID]	0	0	1	1	0	0	0	0	0	0	0	0	0	0	–
CC(=O)Oc1ccccc1C(=O)O [ASPIRIN]	0	0	0	0	0	0	0	0	0	0	0	0	0	0	–
Cc1nc2ccc(CN(C)c3ccc(C(=O)N[C@@H](CCC(=O)O)C(=O)O)s3)cc2c(=O)[nH]1 [RALTITREXED]	0	0	1	0	0	0	0	0	0	0	0	1	0	0	–
NS(=O)(=O)c1cc2c(cc1C(F)(F)F)NC(Cc1ccccc1)NS2(=O)=O (configuration not stated) [BENDROFLUMETHIAZIDE]	0	0	2	0	0	0	0	1	0	1	0	0	0	0	–
NITROPRUSSIDE	0	0	0	0	0	0	0	0	0	0	0	0	0	0	–
Cc1cc(C(=O)NNCc2ccccc2)no1 [ISOCARBOXAZID]	0	0	0	0	0	0	0	0	0	0	0	0	0	0	–
NCCCC[C@H](N[C@@H](CCc1ccccc1)C(=O)O)C(=O)N1CCC[C@H]1C(=O)O [LISINOPRIL ANHYDROUS]	0	0	3	0	0	0	0	1	0	1	0	1	0	0	–
COc1cccc2c1C(=O)c1c(O)c3c(c(O)c1C2=O)C[C@@](O)(C(=O)CO)C[C@@H]3O[C@H]1C[C@H](N)[C@H](O)[C@H](C)O1 [DOXORUBICIN]	0	0	5	0	1	0	0	1	0	1	1	1	0	0	–
